Activity calls are given as the source filed them.
Experiments:
[1] = molecular target: G-protein coupled receptor 55 (Homo sapiens, UniProt Q9Y2T6); assay: GPR55 antagonists blocking LPI-driven arrestin recruitment, primary screen, imaging, U2OS, beta-arrestin-GFP, LPI agonist (AID 2013); assay type: functional;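 note: antagonist potency measured as reduced agonist-driven arrestin aggregation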
[2] = molecular target: Cytochrome P450 2D6 (Homo sapiens, UniProt P10635); assay: qHTS Assay for Inhibitors and Substrates of Cytochrome P450 2D6. [Related pubchem assays: 410 ]; assay type: ADME; conditions: read-out: Potency
Cytochrome P450 2D6, sequence (P10635 whole entry): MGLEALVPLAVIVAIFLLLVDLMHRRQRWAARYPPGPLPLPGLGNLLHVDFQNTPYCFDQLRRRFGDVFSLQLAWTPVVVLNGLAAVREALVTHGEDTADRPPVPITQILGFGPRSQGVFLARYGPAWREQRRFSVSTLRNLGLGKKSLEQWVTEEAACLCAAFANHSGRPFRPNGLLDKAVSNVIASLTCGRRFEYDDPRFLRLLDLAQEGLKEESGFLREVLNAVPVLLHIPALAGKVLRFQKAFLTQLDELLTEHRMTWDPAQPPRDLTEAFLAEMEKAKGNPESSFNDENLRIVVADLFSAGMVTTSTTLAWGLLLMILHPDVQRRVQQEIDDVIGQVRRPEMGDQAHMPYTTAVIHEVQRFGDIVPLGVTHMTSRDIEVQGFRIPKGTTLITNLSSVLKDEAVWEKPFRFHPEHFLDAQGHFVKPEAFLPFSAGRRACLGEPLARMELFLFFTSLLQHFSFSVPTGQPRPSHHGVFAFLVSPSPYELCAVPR

[3] = molecular target: T1, Hexokinase HKDC1 (Homo sapiens, UniProt Q2TB90); assay: HKDC1 hexokinase inhibitors, dose response, biochemical, W721R variant (AID 504729); assay type: functional
T1 sequence (Q2TB90 whole entry): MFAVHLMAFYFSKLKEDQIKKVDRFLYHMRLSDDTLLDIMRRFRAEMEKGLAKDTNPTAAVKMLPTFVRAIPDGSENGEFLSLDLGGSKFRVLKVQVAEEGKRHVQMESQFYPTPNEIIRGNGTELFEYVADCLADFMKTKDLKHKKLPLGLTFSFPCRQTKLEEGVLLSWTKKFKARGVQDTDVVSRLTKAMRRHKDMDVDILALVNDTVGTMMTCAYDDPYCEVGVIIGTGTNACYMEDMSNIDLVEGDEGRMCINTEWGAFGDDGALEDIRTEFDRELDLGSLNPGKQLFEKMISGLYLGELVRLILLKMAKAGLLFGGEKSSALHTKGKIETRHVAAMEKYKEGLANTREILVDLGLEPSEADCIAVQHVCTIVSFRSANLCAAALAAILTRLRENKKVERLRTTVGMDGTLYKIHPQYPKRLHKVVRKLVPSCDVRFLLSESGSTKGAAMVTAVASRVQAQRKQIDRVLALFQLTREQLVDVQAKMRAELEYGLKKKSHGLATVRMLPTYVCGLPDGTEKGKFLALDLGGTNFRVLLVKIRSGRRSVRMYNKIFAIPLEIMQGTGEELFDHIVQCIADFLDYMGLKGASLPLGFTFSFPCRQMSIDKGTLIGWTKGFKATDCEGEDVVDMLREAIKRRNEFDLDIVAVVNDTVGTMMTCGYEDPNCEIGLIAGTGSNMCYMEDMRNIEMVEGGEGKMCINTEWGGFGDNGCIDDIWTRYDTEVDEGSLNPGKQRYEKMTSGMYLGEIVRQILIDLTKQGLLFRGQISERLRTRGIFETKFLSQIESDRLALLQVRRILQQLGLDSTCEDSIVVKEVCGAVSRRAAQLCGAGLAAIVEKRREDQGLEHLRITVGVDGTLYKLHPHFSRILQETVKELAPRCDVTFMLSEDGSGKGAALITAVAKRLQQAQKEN

[4] = system: HEK293; assay: Cytotoxicity assay in HEK293 cells. [Related pubchem assays (depositor defined):AID1266, AID1269, AID1270, AID1271, AID1280, AID1281, AID1282, AID1283, AID1287, AID1289, AID1290, AID1291, AID1292, AID1293, AID1294, AID1295, AID1299, AID1302, AID1364, AID1365, AID1366, AID1367, AID1369, AID1370, AID1371, AID1372, AID1373, AID1374, AID1375, AID1384 …; assay type: functional, cell-based; conditions: Homo sapiens
[5] = molecular target: T2, Luciferin 4-monooxygenase (Photinus pyralis, UniProt P08659); assay: In vitro luciferase assay using purified luciferase. [Related pubchem assays: 1299, 1270, 1295, 1375, 1287, 1281, 1293, 1291, 1289, 1280, 465, 1364, 1282, 1372, 1365, 1370, 1367, 1366, 1266, 1373, 1292, 1290, 1302, 1371, 1283, 1271, 1294, 1374, 1368, 1369 ]
T2 sequence (P08659 whole entry): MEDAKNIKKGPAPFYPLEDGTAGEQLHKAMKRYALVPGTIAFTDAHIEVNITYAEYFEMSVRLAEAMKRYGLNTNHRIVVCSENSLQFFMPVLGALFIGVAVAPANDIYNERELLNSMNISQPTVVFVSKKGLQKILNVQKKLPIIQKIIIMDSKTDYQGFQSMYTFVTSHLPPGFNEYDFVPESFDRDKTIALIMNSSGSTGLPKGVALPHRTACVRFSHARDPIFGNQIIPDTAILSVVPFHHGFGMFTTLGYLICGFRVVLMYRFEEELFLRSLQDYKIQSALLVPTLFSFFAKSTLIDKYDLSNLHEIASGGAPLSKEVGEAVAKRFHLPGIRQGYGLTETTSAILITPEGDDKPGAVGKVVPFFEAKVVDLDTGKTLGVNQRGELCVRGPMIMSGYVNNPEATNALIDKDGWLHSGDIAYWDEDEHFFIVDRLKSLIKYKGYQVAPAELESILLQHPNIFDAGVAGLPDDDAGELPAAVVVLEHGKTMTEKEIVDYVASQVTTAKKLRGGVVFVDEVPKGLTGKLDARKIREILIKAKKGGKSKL

[6] = molecular target: T2, Luciferin 4-monooxygenase; assay: firefly luciferase enzyme inhibitors, dose response, biochemical, luminescence (AID 1891)
[7] = system: HEK293; assay: PMA/Ionomycin induced NF-kB luciferase assay in 293- NF-kB-Luc stable cells. [Related pubchem assays: 1299, 1270, 1295, 1375, 1287, 1281, 1293, 1291, 1289, 1280, 465, 1364, 1282, 1372, 1365, 1370, 1367, 1366, 1269, 1373, 1292, 1290, 1302, 1371, 1283, 1271, 1294, 1374, 1368, 1369 ]; assay type: functional, cell-based; conditions: Homo sapiens
[8] = system: HEK293; assay: inhibitors of LMP1-driven NF-kB reporter, dose response, cell-based, HEK293, luciferase, cherry-pick (AID 588343); assay type: functional; conditions: Homo sapiens
[9] = Luminescence Cell-Based Dose Confirmation HTS to Identify Inhibitors of Platelet Dense Granule Release. [Related pubchem assays: 1663 (Primary HTS), 1678 (Summary of Project)]; assay type: functional
[10] = system: HEK293; assay: TNF Induced NF-kB Luciferase in 293-NF-kB-Luc Stable Cells. [Related pubchem assays: 1266, 1299, 1269, 1373, 1292, 1290, 1302, 1371, 1283, 1270, 1295, 1271, 1375, 1294, 1374, 1281, 1293, 1291, 1289, 1280, 465, 1368, 1364, 1282, 1372, 1365, 1369, 1370, 1367, 1366 ]; assay type: functional, cell-based; conditions: Homo sapiens
[11] = A Cell Based Secondary Assay To Explore Cytotoxicity of Compounds that Sensitize Mycobacterium Tuberculosis to Beta-Lactam Antibiotics.; assay type: functional
[12] = molecular target: Lysosomal acid glucosylceramidase (Homo sapiens, UniProt P04062); assay: Dose response cell-based high throughput screening assay to identify enhancers of beta-glucosidase activity. [Related pubchem assays: 784 ]; assay type: functional
Lysosomal acid glucosylceramidase, sequence (P04062 whole entry): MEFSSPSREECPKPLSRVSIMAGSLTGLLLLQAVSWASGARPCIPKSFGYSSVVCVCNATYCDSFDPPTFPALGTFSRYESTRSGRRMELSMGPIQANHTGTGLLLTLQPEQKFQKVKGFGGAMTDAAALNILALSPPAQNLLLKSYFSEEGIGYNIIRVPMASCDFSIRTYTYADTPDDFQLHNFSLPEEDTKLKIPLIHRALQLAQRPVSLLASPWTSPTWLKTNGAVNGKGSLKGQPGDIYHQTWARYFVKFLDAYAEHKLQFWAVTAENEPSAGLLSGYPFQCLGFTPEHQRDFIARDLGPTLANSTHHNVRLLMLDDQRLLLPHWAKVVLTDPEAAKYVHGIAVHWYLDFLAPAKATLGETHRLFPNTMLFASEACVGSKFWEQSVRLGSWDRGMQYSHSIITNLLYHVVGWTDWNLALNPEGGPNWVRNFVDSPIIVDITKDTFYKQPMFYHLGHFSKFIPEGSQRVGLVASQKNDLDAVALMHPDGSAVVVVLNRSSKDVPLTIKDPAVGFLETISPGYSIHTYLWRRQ

G-protein coupled receptor 55, sequence (Q9Y2T6 whole entry): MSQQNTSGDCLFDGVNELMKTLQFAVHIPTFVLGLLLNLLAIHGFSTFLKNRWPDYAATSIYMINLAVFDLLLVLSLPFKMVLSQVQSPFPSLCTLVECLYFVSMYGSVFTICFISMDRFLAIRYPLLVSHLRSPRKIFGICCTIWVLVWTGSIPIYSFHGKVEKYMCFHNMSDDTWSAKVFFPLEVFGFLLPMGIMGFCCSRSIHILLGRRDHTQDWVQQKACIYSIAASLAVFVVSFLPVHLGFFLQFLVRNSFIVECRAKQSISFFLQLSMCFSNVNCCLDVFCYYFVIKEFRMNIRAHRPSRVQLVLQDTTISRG

Question: Which IC50 [1] does the source give for `Cc1ccc(N(C)C(=O)c2cc(S(=O)(=O)N3CCc4ccccc43)cn2C)cc1` here?
Answer: 0.769 µM (active)

Question: With `CC(C)[C@@]1(NC(=O)[C@H]2C[C@H]3c4cccc5[nH]cc(c45)C[C@@H]3N(C)C2)O[C@]2(O)[C@H]3CCCN3C(=O)[C@H](Cc3ccccc3)N2C1=O` as the compound, how does the AC50 [2] read?
Answer: 31.6 µM (inconclusive)

Question: With `CC(C)Nc1nnc(SCC(=O)Nc2ccc3c(c2)C(=O)c2ccccc2C3=O)s1` as the compound, how does the IC50 [3] read?
Answer: 29.7 µM (inactive)

Question: For `CC(=O)c1ccc(-c2nc3c4ccccc4ccn3c2C(C)=O)o1`, which EC50 [4] is on record?
Answer: > 8 µM (inactive)

Question: And the EC50 [5]?
Answer: > 8 µM (not active)

Question: And the EC50 [6]?
Answer: > 112 µM (not active)

Question: And the EC50 [7]?
Answer: 0.0552 µM (active)

Question: What about the AC50 [8] of the same compound?
Answer: 3.1 µM (active)

Question: And the EC50 [9]?
Answer: > 112 µM (not active)

Question: What about the EC50 [10] of the same compound?
Answer: 0.503 µM (active)

Question: With `Cc1cc(O)nc(N/N=C/c2c(F)c(F)c(F)c(F)c2F)n1` as the compound, how does the CC50 [11] read?
Answer: > 40 µM (active)

Question: With `c1ccc(Cn2c(SCc3nc4ccccc4s3)nnc2-c2ccco2)cc1` as the compound, how does the EC50 [12] read?
Answer: > 50 µM (not active)

Question: With `CCOc1ccc(NC(=O)c2ccccc2OCC(=O)c2ccccc2)cc1` as the compound, how does the IC50 [1] read?
Answer: 1.74 µM (active)

Question: For `Cc1cccc2c(N=NC(=O)c3ccc(NS(=O)(=O)c4cccs4)cc3)c(O)[nH]c12`, which IC50 [3] is on record?
Answer: 15.5 µM (active)

Question: With `COc1ccc(OCC2CC3C(CCC(C)C3c3ccc(Br)cc3)C(=O)O2)cc1` (stereo not given) as the compound, how does the AC50 [2] read?
Answer: 7.94 µM (inconclusive)
